Laboratory results reported in patent US9303042B2, “Triazolothienopyrimidine compound inhibitors of urea transporters and methods of using inhibitors” (The Regents of the University of California, priority 2012, dated 2016).

Key:
AQP1-null erythrocytes = assay: Erythrocyte osmotic water permeability by stopped-flow light scattering, AQP1-null erythrocytes; assay type: cell-based, mouse; conditions: 100 mM sucrose gradient, 10 °C
Experimental: Erythrocyte urea and water permeabilities were measured by stopped-flow light scattering using a Hi-Tech Sf-51 instrument (Wiltshire, UK). […] Urea permeability and percentage inhibition were computed as described (see, e.g., Levin et al., FASEB J. supra, 2007)). In some experiments, different urea gradients (25-200 mM) were used, or inhibitor was added only to the erythrocyte-containing or urea-containing solutions. In some experiments an outwardly directed urea gradient was used in which erythrocytes were incubated for 30 min with PBS containing specified urea and mixed in the stopped-flow apparatus with PBS. In reversibility experiments, erythrocytes were incubated for 30 min with inhibitor, washed three times to remove inhibitor, and urea transport assayed. Osmotic water permeability was measured using a 100 mM gradient of sucrose.
Erythrocyte osmotic water permeability was measured by stopped-flow light scattering. […] Life Sci. 52:474-78 (2009)).

CFTR = target: T1, CFTR (Homo sapiens, UniProt P13569); assay: CFTR chloride conductance by short-circuit current; assay type: cell-based; conditions: 10 μM, forskolin-activated
T1 construct: expressed in transfected cells

mice = assay: Urinary concentration in mice; assay type: in vivo, mouse; conditions: 1 week high-protein diet, 300 μg
MDCK cells = assay: MTT cytotoxicity assay; assay type: cell-based, canine; conditions: up to 10 μM, 24 h
[1] = In vitro metabolic stability in hepatic microsomes; assay type: in vitro ADME, rat
Experimental: Compounds, each at 5 μM, were incubated for specified times at 37° C. with rat liver microsomes (1 mg protein/ml; Sigma-Aldrich, St. Louis, Mo.) in potassium phosphate buffer (100 mM) containing 1 mM NADPH. The mixture was then chilled on ice, and 0.5 ml of ice-cold ethyl acetate was added.

UT-A3 = target: T2, UT-A3 (Mus musculus, UniProt Q8R4T9); assay: Transepithelial urea transport in MDCK cells stably expressing UT-A3; assay type: cell-based; conditions: UTBinh-14 10 μM, forskolin
T2 construct: expressed in transfected cells
T2 sequence (Q8R4T9 1-461 isoform Q8R4T9-3): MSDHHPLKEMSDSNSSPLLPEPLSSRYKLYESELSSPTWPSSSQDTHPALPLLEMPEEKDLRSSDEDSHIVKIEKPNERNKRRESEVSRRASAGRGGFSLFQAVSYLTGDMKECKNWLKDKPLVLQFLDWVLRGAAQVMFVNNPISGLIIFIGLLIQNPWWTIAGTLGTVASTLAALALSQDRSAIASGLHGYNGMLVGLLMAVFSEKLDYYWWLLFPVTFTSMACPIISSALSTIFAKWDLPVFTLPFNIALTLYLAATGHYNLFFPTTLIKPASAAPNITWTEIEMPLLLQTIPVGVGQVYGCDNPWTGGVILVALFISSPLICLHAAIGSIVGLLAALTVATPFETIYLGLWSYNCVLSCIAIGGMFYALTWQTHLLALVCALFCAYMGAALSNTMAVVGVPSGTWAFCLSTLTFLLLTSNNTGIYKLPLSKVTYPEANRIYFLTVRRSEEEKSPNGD
Experimental: UT-B selectivity and cytotoxicity were studied. Because of sequence similarities between UT-B and UT-A isoforms, UT-A inhibition was measured. Transepithelial urea transport was measured in MDCK cells stably expressing UT-A1, UT-A3, and UT-B. UT-A1 and UT-A3 are cAMP-regulated urea transporters expressed in kidney tubule epithelia (see, e.g., Frohlich et al., Am. J. Physiol. Cell Physiol. 291:C600-606 (2006); Tickle et al., Am. J. Physiol. Regul. Integr. Comp Physiol 0.297: R323-329 (2009); Stewart et al., Am. J. Physiol. Renal Physiol. 292:F1157-63 (2006)). MDCK cells were cultured on collagen-coated porous filters for measurement of urea accumulation in the apical solution following addition of urea to the basolateral solution.
cDNAs encoding mouse UT-A3 and UT-B were cloned into pcDNA3.1 and used to generate stably transfected MDCK cell lines. MDCK cells stably expressing rat UT-A1 (MDCK-UT-A1) (see, e.g., Frohlich et al., supra) were obtained as described (see, e.g., Levin et al., FASEB J., supra). Cells were cultured in DMEM containing 10% FBS and 0.5 mg/mL G418. […] Urea flux in the basolateral-to-apical direction across unstimulated and forskolin-stimulated cell layers was measured in response to a 15-mM urea gradient. […]

T1 sequence (P13569 whole entry): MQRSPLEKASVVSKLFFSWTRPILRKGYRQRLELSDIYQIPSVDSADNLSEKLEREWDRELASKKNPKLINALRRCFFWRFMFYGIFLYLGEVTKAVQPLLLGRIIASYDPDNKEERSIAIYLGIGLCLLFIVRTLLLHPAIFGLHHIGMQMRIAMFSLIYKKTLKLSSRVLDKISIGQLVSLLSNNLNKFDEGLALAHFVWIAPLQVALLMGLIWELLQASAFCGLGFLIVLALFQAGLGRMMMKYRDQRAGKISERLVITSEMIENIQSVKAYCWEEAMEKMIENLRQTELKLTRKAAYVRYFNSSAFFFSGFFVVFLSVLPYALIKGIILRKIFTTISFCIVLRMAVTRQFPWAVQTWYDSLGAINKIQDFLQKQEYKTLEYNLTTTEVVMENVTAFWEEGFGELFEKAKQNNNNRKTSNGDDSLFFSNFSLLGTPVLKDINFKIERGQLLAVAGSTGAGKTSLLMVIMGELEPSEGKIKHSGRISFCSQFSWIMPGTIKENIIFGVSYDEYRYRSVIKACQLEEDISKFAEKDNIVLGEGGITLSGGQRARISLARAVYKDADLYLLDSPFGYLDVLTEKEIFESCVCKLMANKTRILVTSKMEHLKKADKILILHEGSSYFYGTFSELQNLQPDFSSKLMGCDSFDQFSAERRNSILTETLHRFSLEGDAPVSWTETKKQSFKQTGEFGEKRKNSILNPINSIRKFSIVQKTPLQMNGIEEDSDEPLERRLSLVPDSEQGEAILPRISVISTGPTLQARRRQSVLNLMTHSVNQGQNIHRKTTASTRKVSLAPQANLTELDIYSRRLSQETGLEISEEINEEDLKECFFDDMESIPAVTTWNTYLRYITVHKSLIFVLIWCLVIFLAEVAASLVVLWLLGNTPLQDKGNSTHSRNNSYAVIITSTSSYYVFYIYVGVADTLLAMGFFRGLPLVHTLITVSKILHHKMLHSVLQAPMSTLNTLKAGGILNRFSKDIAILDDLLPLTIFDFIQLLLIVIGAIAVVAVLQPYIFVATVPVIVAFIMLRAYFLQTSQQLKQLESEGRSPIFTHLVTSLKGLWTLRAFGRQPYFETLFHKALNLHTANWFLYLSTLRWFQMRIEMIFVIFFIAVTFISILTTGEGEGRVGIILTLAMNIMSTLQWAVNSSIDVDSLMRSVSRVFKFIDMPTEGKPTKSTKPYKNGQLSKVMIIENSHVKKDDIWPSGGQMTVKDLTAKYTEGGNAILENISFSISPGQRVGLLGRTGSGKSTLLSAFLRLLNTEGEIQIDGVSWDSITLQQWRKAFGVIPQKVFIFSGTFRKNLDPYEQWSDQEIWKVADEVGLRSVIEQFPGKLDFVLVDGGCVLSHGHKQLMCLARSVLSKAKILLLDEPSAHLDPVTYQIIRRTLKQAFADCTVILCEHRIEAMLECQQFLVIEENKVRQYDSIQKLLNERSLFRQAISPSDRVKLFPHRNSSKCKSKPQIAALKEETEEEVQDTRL

## CCc1ccc(S(=O)(=O)c2nnn3c2nc(NCc2cccs2)c2sccc23)cc1 [UTBinh-14, [3-(4-Ethyl-benzenesulfonyl)-thieno[2,3-e][1,2,3]triazolo[1,5-a]pyrimidin-5-yl]-thiophen-2-ylmethylamine]
AQP1-null erythrocytes
  water transport in AQP1-null erythrocytes: inhibited water transport significantly
CFTR
  inhibition of CFTR chloride conductance: no significant inhibition
mice
  effect on dDAVP-stimulated urinary concentration, high-protein diet: robust effect
MDCK cells
  cytotoxicity: no cytotoxicity
[1]; hepatic microsomes, NADPH
  t1/2 for disappearance in hepatic microsomes: approximately 2.8 min
[1]; parent molecule after 30 min incubation with rat liver microsomes
  % Remaining: <5%
UT-A3
  inhibition of UT-A3 facilitated urea transport: little inhibition
